Bounds are passed on as bounds.

For experiment [1], the system named is HT-1080. The experiment in a line: Cytotoxicity against human HT-1080 cells. The format is functional, cell-based.
The subject of experiment [2] is A549. The experiment in a line: Cytotoxicity against human A549 cells. The format is functional, cell-based.
The test system of experiment [3] is SGC-7901. The experiment in a line: Cytotoxicity against human SGC-7901 cells. The format is functional, cell-based.
Experiment [4] in a line: Inhibition of bovine brain tubulin polymerization by spectrometric analysis. It is filed as tissue-based, Bos taurus.
Experiment [5] deals with BJAB. The experiment is described as follows: Cytotoxicity against human BJAB cells. It is filed as functional, cell-based.
The subject of another experiment is B16. The experiment in a line: Cytotoxicity against mouse B16 cells assessed as reduction in cell viability incubated for 72 hrs by MTT assay. It is filed as functional, cell-based. The conditions noted are these: B16, 72 h.
Experiment [6] has as its system A549. The experiment in a line: Cytotoxicity against human A549 cells assessed as reduction in cell viability incubated for 48 hrs by MTT assay. It is filed as functional, cell-based. The conditions noted are these: A549, 48 h.
In another experiment the test system is HeLa. The experiment is described as follows: Cytotoxicity against human HeLa cells assessed as reduction in cell viability incubated for 48 hrs by MTT assay. It is filed as functional, cell-based.
The subject of experiment [7] is A549. The experiment is described as follows: Cytotoxicity against human A549 cells assessed as reduction in cell viability incubated for 24 hrs by MTT assay. It is filed as functional, cell-based. The conditions noted are these: A549, 24 h. In general terms: Formazan colour is commonly taken as a measure of viable cells.
Experiment [8] has as its target Tubulin. The experiment in a line: Inhibition of tubulin polymerization (unknown origin) measured for every 1 min interval for 90 mins by fluorescence based assay. It is filed as protein-complex assay, Homo sapiens.
Experiment [9] relates to SGC-7901. The experiment is described as follows: Cytotoxicity against human SGC-7901 cells assessed as reduction in cell viability incubated for 24 hrs by MTT assay. The format is functional, cell-based. The conditions noted are these: SGC-7901, 24 h.
Experiment [10] concerns HT-1080. The experiment in a line: Cytotoxicity against human HT-1080 cells assessed as reduction in cell viability incubated for 24 hrs by MTT assay. The conditions noted are these: HT-1080, 24 h. It is filed as functional, cell-based.
Experiment [11] deals with Tubulin. The experiment in a line: Inhibition of tubulin polymerization (unknown origin) incubated for 1 hr by fluorescence based assay. The format is protein-complex assay, Homo sapiens.
For experiment [12], the system named is BJAB. The experiment is described as follows: Cytotoxicity against human BJAB cells assessed as reduction in cell viability incubated for 24 hrs by CASY cell counter method. The format is functional, cell-based.
Another experiment is filed under the species Sus scrofa. The experiment in a line: Displacement of fluorescein-colchicine from pig brain tubulin incubated for 1 hr by fluorescence based gel exclusion assay. The format is tissue-based. The conditions noted are these: concentration not given here.
In the next experiment the test system is MCF7. The experiment is described as follows: Cytotoxicity against human MCF7 cells assessed as reduction in cell viability incubated for 24 hrs by MTT assay. To be noted: MCF7, 24 h. It is filed as functional, cell-based.
The test system of a further experiment is HT-29. The experiment in a line: Cytotoxicity against human HT-29 cells assessed as reduction in cell viability incubated for 24 hrs by MTT assay. The conditions noted are these: HT-29, 24 h. The format is functional, cell-based.
Experiment [13] is described as follows: Cytotoxicity against Leukemia cell line (unknown origin) assessed as reduction in cell viability incubated for 72 hrs by MTT assay. The format is functional.
Experiment [14] is described as follows: Cytotoxicity against Prostate tumor cell line (unknown origin) assessed as reduction in cell viability incubated for 72 hrs by MTT assay. The format is functional.
Experiment [15] in a line: Cytotoxicity against Breast cancer cells (unknown origin) assessed as reduction in cell viability incubated for 72 hrs by MTT assay. It is filed as functional, cell-based. The conditions noted are these: Breast cancer cell line.
The nature of experiment [16]: Cytotoxicity against Cervical carcinoma cell line (unknown origin) assessed as reduction in cell viability incubated for 72 hrs by MTT assay. The format is functional.
Experiment [17] can be described thus: Cytotoxicity against Ovarian cancer cell line (unknown origin) assessed as reduction in cell viability incubated for 72 hrs by MTT assay. It is filed as functional.

The IC50 is the concentration needed to halve the response being measured. On to `COc1cc(/C(=N/O)c2cnn(-c3ccccc3)n2)cc(OC)c1OC`, for which the IC50 in the experiment on HT-1080 [1], in the experiment on A549 [2] and with SGC-7901 [3] was 120 nM throughout.
`COc1cc(C(=O)n2nc(-c3ccc(C)cc3)nc2N)cc(OC)c1OC` showed a 50% inhibitory concentration (IC50) in experiment [4] of 660 nM.
Take `CCCCCCCC/C=C\CCCCCCCC(=O)OCc1cn(C2CCc3cc(OC)c(OC)c(OC)c3-c3ccc(OC)c(=O)cc32)nn1` (centres undefined): the half-maximal inhibitory concentration (IC50) in the experiment on BJAB [5] was determined as 6 nM.
For `COc1ccc(/C=C\c2cc(OC)c(OC)c(OC)c2)cc1O` [COMBRETASTATIN A4], in the experiment with B16, the IC50 turned out to be 56 µM.
For the compound `COc1ccc(S(=O)(=O)Nc2cccnc2Nc2ccc(O)cc2)cc1` [ABT-751], the half-maximal inhibitory concentration (IC50) in the experiment on A549 [6] was 1620 nM; in the experiment with HeLa, 2180 nM.
In the experiment with BJAB [5], `CCCCCCCCCCCCCCCCCC(=O)OCc1cn(C2CCc3cc(OC)c(OC)c(OC)c3-c3ccc(OC)c(=O)cc32)nn1` (centres undefined) had an IC50 of 4 nM.
For the compound `COc1cccc(-c2nnc3n2N=C(c2ccc(OC)c(N)c2)CS3)c1`, the IC50 came out at 0.011 µM in the experiment on A549 [7], 1600 nM against Tubulin [8], 11 nM in the experiment with SGC-7901 [9] and 0.011 µM with HT-1080 [10].
For `COc1cc(Nc2ncccc2NC(=O)c2cn(Cc3cccc(Oc4ccccc4)c3)nn2)cc(OC)c1`, the IC50 on Tubulin [11] was found to be 2040 nM; with A549 [6] it was 1020 nM; with HeLa it was 1330 nM.
In general, inhibition refers to the change of the read-out against control, counted positive when it falls. A higher inhibition goes with a strong effect. On to `CCCCCCCCCCCC(=O)OCc1cn(C2CCc3cc(OC)c(OC)c(OC)c3-c3ccc(OC)c(=O)cc32)nn1` (centres undefined), for which, in the experiment with BJAB [12], the half-maximal inhibitory concentration (IC50) amounted to 10 nM. Moreover, in the experiment filed under Sus scrofa, the inhibition was greater than 80%.
Consider `COc1cc(Cc2nnc(S)n2/N=C\c2cccc(Cl)c2Cl)cc(OC)c1OC`, for which the half-maximal inhibitory concentration (IC50) was determined as 170 nM on Tubulin [11]; 9.71 µM in the experiment with A549 [7]; 3.33 µM with MCF7; 4.25 µM with HT-29; 12.5 µM with HT-1080 [10].
Turning to `O=C(c1cn(Cc2cccc(Oc3ccccc3)c2)nn1)c1cccnc1Nc1ccc(F)cc1`, on Tubulin [11], the half-inhibitory concentration (IC50) was determined as 1840 nM.
Consider `COc1cc(-c2nncn2-c2ccc3c(ccn3C)c2)cc(OC)c1OC`, for which the IC50 in experiment [13], in experiment [14], in experiment [15], in [16] and in experiment [17] was 2.1 nM throughout.
